Assay results published in the supplement of paper PMC10307832.

How the values were obtained:
Experiment in all cases: relative viability (nuclei count vs DMSO), 5 days (fraction); higher = more cells survive
NCI-H661 = tested on: NCI-H661
In short: (§1)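 Values are medians from duplicate plates. Each reflects relative viability, defined as the nuclei count of treated wells over that of vehicle wells. Lung cancer cell lines in 1536-well plates were pin-tool dosed one day after seeding with one drug alone or with a fixed anchor-drug dose plus five library-drug doses (not always all listed) in √10 steps, then fixed, stained and imaged at 4× after 5 days.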

CAL-12T = tested on: CAL-12T
In short: as §1

NCI-H1395 = tested on: NCI-H1395
In short: as §1

NCI-H1993 = tested on: NCI-H1993
In short: as §1

NCI-H23 = tested on: NCI-H23
In short: as §1

NCI-H1355 = tested on: NCI-H1355
In short: as §1

NCI-H2170 = tested on: NCI-H2170
In short: as §1

LCLC-103H = tested on: LCLC-103H
In short: as §1

NCI-H1651 = tested on: NCI-H1651
In short: as §1

NCI-H1666 = tested on: NCI-H1666
In short: as §1

COR-L23 = tested on: COR-L23
In short: as §1

NCI-H2347 = tested on: NCI-H2347
In short: as §1

201T = tested on: 201T
In short: as §1

LC-2-ad = tested on: LC-2-ad
In short: as §1

NCI-H2085 = tested on: NCI-H2085
In short: as §1

NCI-H520 = tested on: NCI-H520
In short: as §1

NCI-H2228 = tested on: NCI-H2228
In short: as §1

NCI-H647 = tested on: NCI-H647
In short: as §1

HOP-62 = tested on: HOP-62
In short: as §1

HCC-44 = tested on: HCC-44
In short: as §1

NCI-H838 = tested on: NCI-H838
In short: as §1

ABC-1 = tested on: ABC-1
In short: as §1

NCI-H322M = tested on: NCI-H322M
In short: as §1

Compound: Cc1cnc(-c2cnc(NCCNc3ccc(C#N)cn3)nc2-c2ccc(Cl)cc2Cl)[nH]1 + CC(=O)c1c(C)c2cnc(Nc3ccc(N4CCNCC4)cn3)nc2n(C2CCCC2)c1=O [Palbociclib] (partner 0.5 µM)
- relative viability (NCI-H661; first compound 0.08 µM): 0.44
- relative viability (NCI-H661; first compound 0.253 µM): 0.433
- relative viability (NCI-H661; first compound 0.8 µM): 0.432
- relative viability (NCI-H661; first compound 2.53 µM): 0.506
- relative viability (CAL-12T; first compound 0.08 µM): 0.43
- relative viability (CAL-12T; first compound 0.253 µM): 0.413
- relative viability (CAL-12T; first compound 0.8 µM): 0.37
- relative viability (CAL-12T; first compound 2.53 µM): 0.286
- relative viability (NCI-H1395; first compound 0.08 µM): 0.762
- relative viability (NCI-H1395; first compound 0.253 µM): 0.619
- relative viability (NCI-H1395; first compound 0.8 µM): 0.609
- relative viability (NCI-H1395; first compound 2.53 µM): 0.65
- relative viability (NCI-H1993; first compound 0.08 µM): 0.718
- relative viability (NCI-H1993; first compound 0.253 µM): 0.566
- relative viability (NCI-H1993; first compound 0.8 µM): 0.621
- relative viability (NCI-H1993; first compound 2.53 µM): 0.679
- relative viability (NCI-H23; first compound 0.08 µM): 0.378
- relative viability (NCI-H23; first compound 0.253 µM): 0.49
- relative viability (NCI-H23; first compound 0.8 µM): 0.515
- relative viability (NCI-H23; first compound 2.53 µM): 0.616
- relative viability (NCI-H1355; first compound 0.08 µM): 0.427
- relative viability (NCI-H1355; first compound 0.253 µM): 0.383
- relative viability (NCI-H1355; first compound 0.8 µM): 0.407
- relative viability (NCI-H1355; first compound 2.53 µM): 0.383
- relative viability (NCI-H2170; first compound 0.08 µM): 0.429
- relative viability (NCI-H2170; first compound 0.8 µM): 0.383
- relative viability (NCI-H2170; first compound 2.53 µM): 0.371
- relative viability (LCLC-103H; first compound 0.08 µM): 0.516
- relative viability (LCLC-103H; first compound 0.253 µM): 0.475
- relative viability (LCLC-103H; first compound 0.8 µM): 0.426
- relative viability (LCLC-103H; first compound 2.53 µM): 0.507
- relative viability (NCI-H1651; first compound 0.08 µM): 0.58
- relative viability (NCI-H1651; first compound 0.253 µM): 0.468
- relative viability (NCI-H1651; first compound 0.8 µM): 0.504
- relative viability (NCI-H1651; first compound 2.53 µM): 0.549
- relative viability (NCI-H1666; first compound 0.08 µM): 0.607
- relative viability (NCI-H1666; first compound 0.253 µM): 0.626
- relative viability (NCI-H1666; first compound 0.8 µM): 0.615
- relative viability (NCI-H1666; first compound 2.53 µM): 0.609
- relative viability (COR-L23; first compound 0.08 µM): 0.328
- relative viability (COR-L23; first compound 0.253 µM): 0.266
- relative viability (COR-L23; first compound 0.8 µM): 0.272
- relative viability (COR-L23; first compound 2.53 µM): 0.264
- relative viability (NCI-H2347; first compound 0.08 µM): 0.411
- relative viability (NCI-H2347; first compound 0.253 µM): 0.406
- relative viability (NCI-H2347; first compound 0.8 µM): 0.438
- relative viability (NCI-H2347; first compound 2.53 µM): 0.493
- relative viability (201T; first compound 0.08 µM): 0.384
- relative viability (201T; first compound 0.8 µM): 0.362
- relative viability (201T; first compound 2.53 µM): 0.38
- relative viability (LC-2-ad; first compound 0.08 µM): 0.473
- relative viability (LC-2-ad; first compound 0.8 µM): 0.485
- relative viability (LC-2-ad; first compound 2.53 µM): 0.436
- relative viability (NCI-H2085; first compound 0.08 µM): 0.469
- relative viability (NCI-H2085; first compound 0.253 µM): 0.509
- relative viability (NCI-H2085; first compound 0.8 µM): 0.504
- relative viability (NCI-H2085; first compound 2.53 µM): 0.561
- relative viability (NCI-H520; first compound 0.08 µM): 0.332
- relative viability (NCI-H520; first compound 0.253 µM): 0.202
- relative viability (NCI-H520; first compound 0.8 µM): 0.224
- relative viability (NCI-H520; first compound 2.53 µM): 0.265
- relative viability (NCI-H2228; first compound 0.08 µM): 0.83
- relative viability (NCI-H2228; first compound 0.253 µM): 0.716
- relative viability (NCI-H2228; first compound 0.8 µM): 0.734
- relative viability (NCI-H2228; first compound 2.53 µM): 0.648
- relative viability (NCI-H647; first compound 0.08 µM): 0.434
- relative viability (NCI-H647; first compound 0.253 µM): 0.303
- relative viability (NCI-H647; first compound 0.8 µM): 0.419
- relative viability (NCI-H647; first compound 2.53 µM): 0.393
- relative viability (HOP-62; first compound 0.08 µM): 0.531
- relative viability (HOP-62; first compound 0.253 µM): 0.426
- relative viability (HOP-62; first compound 0.8 µM): 0.446
- relative viability (HOP-62; first compound 2.53 µM): 0.45
- relative viability (HCC-44; first compound 0.08 µM): 0.957
- relative viability (HCC-44; first compound 0.253 µM): 0.931
- relative viability (HCC-44; first compound 0.8 µM): 0.97
- relative viability (HCC-44; first compound 2.53 µM): 0.985
- relative viability (NCI-H838; first compound 0.08 µM): 0.259
- relative viability (NCI-H838; first compound 0.253 µM): 0.256
- relative viability (NCI-H838; first compound 0.8 µM): 0.253
- relative viability (NCI-H838; first compound 2.53 µM): 0.389
- relative viability (ABC-1; first compound 0.08 µM): 0.903
- relative viability (ABC-1; first compound 0.253 µM): 0.338
- relative viability (ABC-1; first compound 0.8 µM): 0.54
- relative viability (ABC-1; first compound 2.53 µM): 0.675
- relative viability (NCI-H322M; first compound 0.08 µM): 0.467
- relative viability (NCI-H322M; first compound 0.253 µM): 0.553
- relative viability (NCI-H322M; first compound 0.8 µM): 0.477
- relative viability (NCI-H322M; first compound 2.53 µM): 0.588
